Data: patent US6673821B2, “Nitrogen heterocycle inhibitors of aspartyl protease” (Enanta Pharmaceuticals, Inc., priority 2001, dated 2004)

Target: HIV-1 protease (Human immunodeficiency virus type 1 group M subtype B, UniProt P04585)
Assay: Biological assay for inhibition of microbial expressed viral protease (HIV-1 protease)
Format: biochemical
From the text: Insofar as compounds of the invention are able to inhibit the replication of the HIV virus in human T-cells and furthermore, may be delivered orally to mammals, they are of evident clinical utility for the treatment of HIV infection. These tests are predictive of the compounds ability to inhibit HIV protease in vivo. We have measured the inhibition constants of each compound against HIV-1 protease using essentially the method described by M. W. Pennington et al., Peptides 1990, Gimet, E. and D. Andrew, Eds., Escom; Leiden, Netherlands (1990).
Biological Assay for Inhibition of Microbial Expressed Viral Protease
The inhibition constants against HIV-1 protease were measured using the method described by M. V. Toth and G. R. Marshall, Int. J. Peptide protein Res., 1990, 544. The method described M. W. Pennington et al., Peptides 1990, Gimet, E. and D. Andrew, Eds., Escom; Leiden, Netherlands (1990) may also be used. Inhibition is measured as IC50 in μM. The person of skill would accept these tests as predictive of the compounds' utility in vivo to treat HIV infected patients.

Structure (SMILES)	IC50 [µM]
CC(C)(C)OC(=O)NC(Cc1ccccc1)C(O)C1SCCN1S(=O)(=O)c1ccc([N+](=O)[O-])cc1 (stereo not shown) [EP-001157]	< 5
CC(C)c1ccc(S(=O)(=O)N2CCSC2C(O)C(Cc2ccccc2)NC(=O)OC(C)(C)C)cc1 (stereo not shown) [EP-001159]	5 to 20
Cc1c(O)cccc1C(=O)NC(Cc1ccccc1)C(O)C1SCCN1S(=O)(=O)c1ccc(F)cc1 (stereo not shown) [EP-001161]	< 5
CC(Oc1ccccc1)C(=O)NC(Cc1ccccc1)C(O)C1SCCN1S(=O)(=O)c1ccc(F)cc1 (stereo not shown) [EP-001164]	> 20
CC(C)(C)OC(=O)NC(Cc1ccccc1)C(O)C1SCCN1S(=O)(=O)c1ccc(OC(F)(F)F)cc1 (stereo not shown) [EP-001155]	5 to 20
O=C(COc1cccc2ccccc12)NC(Cc1ccccc1)C(O)C1SCCN1S(=O)(=O)c1ccc(F)cc1 (stereo not shown) [EP-001165]	> 20
O=C(NC(Cc1ccccc1)C(O)C1SCCN1S(=O)(=O)c1ccc(F)cc1)OC1CCOC1 (stereo not shown) [EP-001169]	< 5
CC(C)(C)OC(=O)NC(Cc1ccccc1)C(O)C1SCCN1S(=O)(=O)c1cccc2cccnc12 (stereo not shown) [EP-001153]	5 to 20
CC(C)(C)OC(=O)NC(Cc1ccccc1)C(O)C1SCCN1S(=O)(=O)c1ccccc1 (stereo not shown) [EP-001156]	< 5
COCCOC(=O)NC(Cc1ccccc1)C(O)C1SCCN1S(=O)(=O)c1ccc(F)cc1 (stereo not shown) [EP-001184]	< 5
Cc1c(O)cccc1C(=O)NC(Cc1ccccc1)C(O)C1SCCN1S(=O)(=O)c1ccc(N)cc1 (stereo not shown) [EP-001195]	< 5
O=C(Cc1ccccc1)NC(Cc1ccccc1)C(O)C1SCCN1S(=O)(=O)c1ccc(F)cc1 (stereo not shown) [EP-001171]	> 20
O=C(COc1ccc2ccccc2c1)NC(Cc1ccccc1)C(O)C1SCCN1S(=O)(=O)c1ccc(F)cc1 (stereo not shown) [EP-001166]	> 20
Cc1cccc(C)c1OCC(=O)NC(Cc1ccccc1)C(O)C1SCCN1S(=O)(=O)c1ccc(F)cc1 (stereo not shown) [EP-001162]	< 5
O=C(COc1ccccc1)NC(Cc1ccccc1)C(O)C1SCCN1S(=O)(=O)c1ccc(F)cc1 (stereo not shown) [EP-001163]	> 20
CC(C)(C)OC(=O)NC(Cc1ccccc1)C(O)C1SCCN1S(=O)(=O)c1ccc(N)cc1 (stereo not shown) [EP-001172]	< 5
